Source: ChEMBL document CHEMBL1201862, “PubChem BioAssay data set” (2004)
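Step 1: Grow cells in 96-well plates. Step 2: Expose to compound for 48 hours at 5 concentrations. Step 3: Interpolate endpoints linearly; if unreached, use highest concentration. GI50 is the concentration that inhibits growth by half.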 Calls of active or inactive are those of the source. Cut-off read from the data, not from the text of the source: active = GI50 up to about 1.1 µM and inactive = higher.

What was measured:
Assay in all cases: NCI-60 cell line screen, 48 h
MOLT-4 = system: MOLT-4
A549 = system: A549
SF-539 = system: SF-539
Malme-3M = system: Malme-3M
LXFL 529 = system: LXFL 529
U-251 = system: U-251
HOP-92 = system: HOP-92
SNB-75 = system: SNB-75
NCI-H460 = system: NCI-H460
HCC 2998 = system: HCC 2998
UO-31 = system: UO-31
786-0 = system: 786-0
CCRF-CEM = system: CCRF-CEM
SW-620 = system: SW-620
MDA-N = system: MDA-N
PC-3 = system: PC-3
A498 = system: A498
MDA-MB-435 = system: MDA-MB-435
DU-145 = system: DU-145
SF-295 = system: SF-295

Row | SMILES | GI50 (MOLT-4) | GI50 (A549) | GI50 (SF-539) | GI50 (Malme-3M) | GI50 (LXFL 529) | GI50 (U-251) | GI50 (HOP-92) | GI50 (SNB-75) | GI50 (NCI-H460) | GI50 (HCC 2998) | GI50 (UO-31) | GI50 (786-0) | GI50 (CCRF-CEM) | GI50 (SW-620) | GI50 (MDA-N) | GI50 (PC-3) | GI50 (A498) | GI50 (MDA-MB-435) | GI50 (DU-145) | GI50 (SF-295)
1 | COc1ccc(-c2cc(O)c3cc4c(cc3n2)OCO4)c(OC)c1 | 30.2 µM (inactive) | 41.8 µM (inactive) | 51.3 µM (inactive) | 25.2 µM (inactive) | 45.7 µM (inactive) | 59.4 µM (inactive) | 82 µM (inactive) | 4.4 µM (inactive) | 40.2 µM (inactive) | 50.7 µM (inactive) | 57.3 µM (inactive) | > 100 µM (inactive) | 34.4 µM (inactive) | 47.3 µM (inactive) |  |  |  |  |  | 
2 | CCN(CC)c1ccc2cc(-c3nnc(-c4ccccc4)o3)c(=O)oc2c1 | 0.413 µM (active) | 16.4 µM (inactive) | 13 µM (inactive) | > 66.8 µM (inactive) |  | 11.3 µM (inactive) | > 100 µM (inactive) | 24.3 µM (inactive) | 4.93 µM (inactive) | 2.2 µM (inactive) | 19.1 µM (inactive) | 17 µM (inactive) | 3.89 µM (inactive) | 30.5 µM (inactive) | 48.5 µM (inactive) | 30.8 µM (inactive) | 45.9 µM (inactive) | > 48.6 µM (inactive) | 66.2 µM (inactive) | 17.3 µM (inactive)
3 | O=C1CCCCC/C=C2/CC[C@H](Sc3ccccc3)[C@@H]12 | 31.4 µM (inactive) | 34.3 µM (inactive) |  | > 100 µM (inactive) | > 100 µM (inactive) | 80.7 µM (inactive) |  | 36.8 µM (inactive) | 94.4 µM (inactive) |  | 50 µM (inactive) | > 100 µM (inactive) | 6.27 µM (inactive) | > 100 µM (inactive) |  |  |  |  |  | 40.6 µM (inactive)
4 | O=C(O)c1cc2c(cc1CC(Cc1ccc3c(c1)CCC3)C(=O)O)CCC2 (stereo unspecified) | > 100 µM (inactive) | > 100 µM (inactive) | > 100 µM (inactive) | > 100 µM (inactive) |  | > 100 µM (inactive) | 20.6 µM (inactive) | 98.9 µM (inactive) | > 100 µM (inactive) | > 100 µM (inactive) | > 100 µM (inactive) | > 100 µM (inactive) | > 100 µM (inactive) | > 100 µM (inactive) | > 100 µM (inactive) | > 100 µM (inactive) | > 100 µM (inactive) | > 100 µM (inactive) | > 100 µM (inactive) | > 100 µM (inactive)
5 | C=CCN1C(N)=C(C#N)C(C#N)(C#N)C1CCC (stereo unspecified) | > 100 µM (inactive) | > 100 µM (inactive) | > 100 µM (inactive) | > 100 µM (inactive) |  | > 100 µM (inactive) | 52.1 µM (inactive) | > 100 µM (inactive) | > 100 µM (inactive) | > 100 µM (inactive) | 75.2 µM (inactive) | > 100 µM (inactive) | > 100 µM (inactive) | > 100 µM (inactive) | > 100 µM (inactive) | > 100 µM (inactive) | > 100 µM (inactive) | > 100 µM (inactive) | > 100 µM (inactive) | > 100 µM (inactive)
6 | COc1ccc2c(-c3ccc(O)cc3)c(Oc3ccc(Cl)cc3)c(=O)oc2c1 | 3.72 µM (inactive) | 4.7 µM (inactive) | 8.26 µM (inactive) | 4.76 µM (inactive) |  | 6.15 µM (inactive) | 7.87 µM (inactive) | 13.2 µM (inactive) | 5.2 µM (inactive) | 10.8 µM (inactive) | 1.14 µM (inactive) | 7.85 µM (inactive) | 6.28 µM (inactive) | 5.35 µM (inactive) | 6.34 µM (inactive) | 7.69 µM (inactive) | 6.79 µM (inactive) | 7.43 µM (inactive) | 4.2 µM (inactive) | 6.43 µM (inactive)
7 | COc1c2c(cc3c1C(O)N1CC[C@]34[C@H]3O[C@H]3[C@H](OC)C[C@@H]14)OCO2 (stereo partly specified) | > 100 µM (inactive) | > 100 µM (inactive) | > 100 µM (inactive) | 71.1 µM (inactive) |  | > 100 µM (inactive) | > 100 µM (inactive) | 86.3 µM (inactive) | 72.3 µM (inactive) | > 100 µM (inactive) | > 100 µM (inactive) | > 100 µM (inactive) | 2.38 µM (inactive) | 54.7 µM (inactive) | 25.3 µM (inactive) | 39.3 µM (inactive) | 50.5 µM (inactive) | 31.6 µM (inactive) | > 100 µM (inactive) | 27.2 µM (inactive)
8 | IC[P+]1(c2ccccc2)CCCC1 | 72.9 µM (inactive) | 28.7 µM (inactive) | 45.3 µM (inactive) | 44.5 µM (inactive) | 29.6 µM (inactive) | 12.8 µM (inactive) |  | 26.2 µM (inactive) | 31.9 µM (inactive) | > 100 µM (inactive) | > 100 µM (inactive) | > 100 µM (inactive) | 54.2 µM (inactive) | > 100 µM (inactive) |  |  | 23.8 µM (inactive) |  |  | 40.1 µM (inactive)
9 | COC(=O)CCc1cccnc1/C=N/O | > 100 µM (inactive) | > 100 µM (inactive) | > 100 µM (inactive) | > 100 µM (inactive) | > 100 µM (inactive) | > 100 µM (inactive) | > 100 µM (inactive) | > 100 µM (inactive) | 27.4 µM (inactive) |  | > 100 µM (inactive) | > 100 µM (inactive) | 96.4 µM (inactive) | 87.5 µM (inactive) |  |  | > 100 µM (inactive) |  |  | > 100 µM (inactive)
10 | Cn1nc(-c2ccccc2)c(C(=O)/C=C/c2ccc(Cl)cc2)c(N2CCCCC2)c1=O | 1.53 µM (inactive) | 2.92 µM (inactive) | 1.61 µM (inactive) |  | 1.8 µM (inactive) | 1.86 µM (inactive) | 1.91 µM (inactive) |  | 2.52 µM (inactive) |  | 1.65 µM (inactive) | 1.69 µM (inactive) | 2.18 µM (inactive) | 3.48 µM (inactive) |  |  |  |  |  | 0.719 µM (active)
11 | O=C1C(Nc2ccccc2)=CC2=NCCc3n[nH]c1c32 | 30.1 µM (inactive) | 84.9 µM (inactive) | 35.7 µM (inactive) | 14.4 µM (inactive) |  | 37.4 µM (inactive) | 45.8 µM (inactive) | > 100 µM (inactive) | 35.9 µM (inactive) | 34.8 µM (inactive) | 55.8 µM (inactive) | 38.5 µM (inactive) | 22.3 µM (inactive) | 34.4 µM (inactive) | 16.3 µM (inactive) | 33.1 µM (inactive) | 61.4 µM (inactive) | 17.2 µM (inactive) | 64 µM (inactive) | 38.6 µM (inactive)
12 | COc1ccc(Nc2nc3ccccc3nc2C(=O)O)cc1 | 84.1 µM (inactive) | > 100 µM (inactive) | > 100 µM (inactive) | > 100 µM (inactive) |  | 64.3 µM (inactive) | > 100 µM (inactive) | 59.7 µM (inactive) | 23.6 µM (inactive) | 3.46 µM (inactive) | 40 µM (inactive) | 49.1 µM (inactive) | 44 µM (inactive) | 37.6 µM (inactive) | 92.9 µM (inactive) | > 100 µM (inactive) | > 100 µM (inactive) | > 100 µM (inactive) | 76.7 µM (inactive) | 61.7 µM (inactive)
13 | C=C1c2nc3ccccc3n2C=C(c2ccc(OC)cc2)N1c1ccc(OC)cc1 | > 100 µM (inactive) | 21.3 µM (inactive) | 7.16 µM (inactive) | 11 µM (inactive) |  | 9.71 µM (inactive) | 15.6 µM (inactive) | 5.61 µM (inactive) | 13.8 µM (inactive) | 20 µM (inactive) | 12.5 µM (inactive) | 5.4 µM (inactive) | > 100 µM (inactive) | 37.8 µM (inactive) | 22.1 µM (inactive) | 19 µM (inactive) | 17.9 µM (inactive) | 12.1 µM (inactive) | 26.9 µM (inactive) | 11.7 µM (inactive)
14 | Cc1c(C(=O)/C=C/c2ccccc2Cl)[n+]([O-])c2ccccc2[n+]1[O-] | 16 µM (inactive) | 15.9 µM (inactive) | 15.9 µM (inactive) | 15.6 µM (inactive) | 7.08 µM (inactive) | 14.3 µM (inactive) | 15.3 µM (inactive) | 16.4 µM (inactive) | 10.3 µM (inactive) |  | 19.1 µM (inactive) | 12.6 µM (inactive) |  | 10.3 µM (inactive) |  |  | 14 µM (inactive) |  |  | 14.7 µM (inactive)
15 | Cc1ccc(/C=C2\CCCC\C2=N\O)cc1 | > 10 µM (inactive) | 71.8 µM (inactive) | 88.3 µM (inactive) |  | 46.3 µM (inactive) | 60.1 µM (inactive) |  | 26.2 µM (inactive) | 54 µM (inactive) | 19.9 µM (inactive) | 26.9 µM (inactive) | 48.5 µM (inactive) | 45.4 µM (inactive) | > 100 µM (inactive) |  |  | 37.7 µM (inactive) |  |  | 74.3 µM (inactive)
16 | c1ccc(OCCSCCCCCCCCCCSCCOc2ccccc2)cc1 | > 100 µM (inactive) | 31.6 µM (inactive) | > 100 µM (inactive) | 14.7 µM (inactive) | > 100 µM (inactive) | 74.3 µM (inactive) |  | > 100 µM (inactive) | 37.8 µM (inactive) | > 100 µM (inactive) | 65.3 µM (inactive) | 50.4 µM (inactive) | > 100 µM (inactive) | 54.2 µM (inactive) |  |  | 27.5 µM (inactive) |  |  | 30.7 µM (inactive)
17 | CC12CCC(C)(c3cc(O)c(O)cc31)c1cc(O)c(O)cc12 | 15.1 µM (inactive) | 29.6 µM (inactive) |  | 18.3 µM (inactive) | 8.47 µM (inactive) |  | 10.7 µM (inactive) | 11.6 µM (inactive) | 18 µM (inactive) | 17.5 µM (inactive) | 19.8 µM (inactive) | 14.7 µM (inactive) | 2.92 µM (inactive) | 15.7 µM (inactive) |  |  |  |  |  | 22 µM (inactive)
